Laboratory results as given in article PMC8348200, “Selective Antifungal Activity and Fungal Biofilm Inhibition of Tryptophan Center Symmetrical Short Peptide” (International Journal of Molecular Sciences, 2021).
≈ marks a conversion by molar mass, not a printed value. Read-outs that look alike come from different tables or passages of the source.

How the values were obtained:
E. coli 25922 = test: microbe, parasite or virus in culture; type: cell-based, Escherichia coli; conditions: Escherichia coli, 25922; MHB, 37 °C 24 h, peptides 0.5-128 μM; lowest concentration inhibiting 95% of growth; three independent experiments; read-out: MICs, E. coli 25922
Experimental: (§1) The peptide antimicrobial activity was determined according to the Clinical and Laboratory Standards Institute method, with modifications. Bacteria concentration was measured by ultraviolet spectrophotometer, and fungi concentration was confirmed by McMillan’s turbidimetric method, which compared the fungi solution with the standard McFarland tube in front of the horizontal line on the paper with the naked eye. Because the light has different refract in different liquids. The standard solution is composed of sulfuric acid and barium chloride, which is equivalent to 1*10^8 CFU fungi. After cultivation, the growth of fungi and bacteria was measured by TECAN automatic enzyme label instrument. Briefly, bacterial cells were cultured in MHB until logarithmic phase, yeast colonies cultured in Yeast Peptone Dextrose Agar (YPDA) were picked and diluted in RPMI 1640 growth medium buffered with morpholine propane sulfonic acid (MOPS), and then 50 μL of bacterial or fungi cell solution (0.5–1 × 10^4 CFU/mL) was added to each well of sterile 96-well plates. Each well contained 50 μL of AMPs dissolved in BSA; the final concentrations of the peptides ranged from 0.5 to 128 μM. The lowest concentration of peptide with no microbial growth being observed were measured after incubation at 37 °C for 24 h for bacteria or at 28 °C for 48 h for fungi. Broth with microbial cells and un-inoculated broth were used as positive control and negative controls, respectively.

E. coli UB1005 = test: microbe, parasite or virus in culture; type: cell-based, Escherichia coli; conditions: Escherichia coli, UB1005; MHB, 37 °C 24 h, peptides 0.5-128 μM; lowest concentration inhibiting 95% of growth; three independent experiments; read-out: MICs, E. coli UB1005
Experimental: as §1

S. aureus 29213 = test: microbe, parasite or virus in culture; type: cell-based, Staphylococcus aureus; conditions: MHB, 37 °C 24 h, peptides 0.5-128 μM, lowest concentration inhibiting 95% of growth, three independent experiments, read-out: MICs, S. aureus 29213
Experimental: as §1

[1] = test system: Fluconazole-resistant C. albicans 56214; test: microbe, parasite or virus in culture; conditions: for MIC: Candida albicans, 48 h, read-out: MICs, C. albicans 56214
Experimental: as §1, with “Bacteria concentration was measured by ultraviolet spectrophotometer, and fungi concentration was confirmed by McMillan’s turbidimetric method, which compared the fungi solution with the standard McFarland tube in front of the horizontal line on the paper with the naked eye.” left out, “The lowest concentration of peptide with no microbial growth being observed were measured after incubation at 37 °C for 24 h for bacteria or at 28 °C for 48 h for fungi.” left out

C. albicans cgmcc 2.2086 [2] = test: Resistance development by sequential passaging at sub-MIC; type: cell-based, Candida albicans; conditions: 20-passage repeating treatment at sub-lethal concentration
Experimental: Resistance development of C. albicans cgmcc 2.2086 against antifungals was explored using a sequential passaging method, described in our previous study [22]. Briefly, MIC testing was first conducted for P19, fluconazole and amphotericin B. After a 24 h incubation, fungal cells growing in a well with a half-MIC level were harvested and diluted to 0.5–1 × 10^4 CFU/mL using RPMI 1640 growth medium buffered with morpholine propane sulfonic acid (MOPS). The inoculum was subjected to subsequent passage MIC testing, and the process was repeated for 30 days. The fold change in MIC was plotted against the number of passages.

C. albicans cgmcc 2.2086 [3] = test: Cytoplasmic membrane depolarization assay (DiSC3-5); type: cell-based, Candida albicans; conditions: agents at their MICs, 1 h; 0.4 μM DiSC3-5
Experimental: To analyze membrane disturbances due to P19, melittin, fluconazole or amphotericin B-treated, cells (1 × 10^4 cells/mL) of C. albicans cgmcc 2.2086 were incubated with antimicrobial agents at their respective MICs for 1 h at room temperature; the cells were then harvested by centrifugation and resuspended in 1 mL PBS (pH 7.4). […] Changes in fluorescence were measured from 0 to 800 s with a F-4500 fluorescence spectrophotometer (Hitachi, Japan) at an excitation wavelength of 622 nm and an emission wavelength of 670 nm.

C. albicans cgmcc 2.2086 [4] = test: Propidium iodide influx, flow cytometry; type: cell-based, Candida albicans; conditions: 1× MIC, 1 h at 28 °C; 10 μg/mL PI
Experimental: Cell membrane permeabilization after treatment with P19, melittin, fluconazole or amphotericin B were also detected via the propidium iodide influx assay. In brief, C. albicans cgmcc 2.2086 cells (1 × 10^4 cells/mL) were treated with antifungal agents for 1 h at 28 °C, then washed, harvested by centrifugation and resuspended in PBS. The cells were treated with 10 μg/mL propidium iodide and incubated for 30 min at room temperature. The uptake of propidium iodide into these cells was analyzed with a FACS flow cytometer (Becton–Dickinson, San Jose, CA) with a laser excitation wavelength of 488 nm. The flow cytometry results can be interpreted as follows. Region Q1 was identified as a living cell region; it represents cells treated with PBS. Q2 region represents the dead cell region. Ignored the surrounding adherent scattered points, the most concentrated scattered points represented the largest cell density. The areas where cells were concentrated represent the state of cells as live or die.

| Compound | MIC (E. coli 25922) [µM] | MIC (E. coli UB1005) [µM] | MIC (S. aureus 29213; Staphylococcus aureus, 29213) [µM] | MIC [1] [µM] | increase in MIC value compared with the first passage (C. albicans cgmcc 2.2086 [2]) [fold] | membrane depolarization (DiSC3-5 fluorescence intensity) (C. albicans cgmcc 2.2086 [3]) | MIC (S. aureus 29213) [µM] | MICs, C. albicans 56214 ([1]; fluconazole-resistant strain, RPMI 1640 buffered with MOPS, 28 °C 48 h, 0.5-128 μM) [µM] | increase of PI fluorescent signal (C. albicans cgmcc 2.2086 [4]) |
| --- | --- | --- | --- | --- | --- | --- | --- | --- | --- |
| C[C@@H]1[C@H](O)[C@@H](C)/C=C/C=C/C=C/C=C/C=C/C=C/C=C/[C@H](O[C@@H]2O[C@H](C)[C@@H](O)[C@H](N)[C@@H]2O)C[C@@H]2O[C@](O)(C[C@@H](O)C[C@@H](O)[C@H](O)CC[C@@H](O)C[C@@H](O)CC(=O)O[C@H]1C)C[C@H](O)[C@H]2C(=O)O [Amphotericin B, reference compound] | > 128 | > 128 | > 128 | 1 (≈ 0.924 µg/mL) | 1024 | minor change of membrane depolarization | – | – | – |
| OC(Cn1cncn1)(Cn1cncn1)c1ccc(F)cc1F [Fluconazole, reference compound] | > 128 | > 128 | > 128 | > 128 | 1024 | minor change of membrane depolarization | – | – | – |
| CC[C@H](C)[C@H](NC(=O)CN)C(=O)NCC(=O)N[C@@H](C)C(=O)N[C@H](C(=O)N[C@@H](CC(C)C)C(=O)N[C@@H](CCCCN)C(=O)N[C@H](C(=O)N[C@@H](CC(C)C)C(=O)N[C@H](C(=O)N[C@H](C(=O)NCC(=O)N[C@@H](CC(C)C)C(=O)N1CCC[C@H]1C(=O)N[C@@H](C)C(=O)N[C@@H](CC(C)C)C(=O)N[C@H](C(=O)N[C@@H](CO)C(=O)N[C@@H](Cc1c[nH]c2ccccc12)C(=O)N[C@H](C(=O)N[C@@H](CCCCN)C(=O)N[C@@H](CCCNC(=N)N)C(=O)N[C@@H](CCCCN)C(=O)N[C@@H](CCCNC(=N)N)C(=O)N[C@@H](CCC(N)=O)C(=O)N[C@@H](CCC(N)=O)C(N)=O)[C@@H](C)CC)[C@@H](C)CC)[C@@H](C)O)[C@@H](C)O)C(C)C)C(C)C [Melittin, reference compound] | – | – | – | – | – | – | 2 (≈ 5.69 µg/mL) | 2 | more than 90% |
